# In US12371454B2, “Cyclic peptide compound having Kras inhibitory action” (priority 2019, dated 2025):
# Starred links: 1 amine or outer side, 2 acyl side, 3 side chain; linkers in the order of their positions; H or OH if unused. Positions of bridges follow the written chain, without caps; N, C: chain ends. Non-standard residues stand in square brackets, D forms with d. Residues, ends and D or L forms follow the SMILES beside them. *: point of attachment. hPhe(3,5-F2-4-CF3) = N[C@@H](CCc1cc(F)c(C(F)(F)F)c(F)c1)C(=O)O; hPhe(3-Cl-4-CF3) = N[C@@H](CCc1ccc(C(F)(F)F)c(Cl)c1)C(=O)O; hPhe(3-F,4-CF3) = N[C@@H](CCc1ccc(C(F)(F)F)c(F)c1)C(=O)O; NMePhe(4-CF3) = CN[C@@H](Cc1ccc(C(F)(F)F)cc1)C(=O)O; X44 = O=C([C@H](CCc1ccc2ncccc2c1)N[*:1])[*:2]; 3Oxa8azabicyclo(3.2.1)octane = C1CC2COCC1N2*; NMeNle(6-CHF2) = CN[C@@H](CCCCC(F)F)C(=O)O; NMedβ3hAla = C[C@H](CC(=O)[*:2])N(C)[*:1]; NMeGly(cPent) = CN[C@H](C(=O)O)C1CCCC1; NMeCha = CN[C@@H](CC1CCCCC1)C(=O)O; cisHyp = O=C(O)[C@@H]1C[C@H](O)CN1; NEtLeu = CCN[C@@H](CC(C)C)C(=O)O; NMeAhp(2) = CCCCC[C@H](NC)C(=O)O; NMeChg = CN[C@H](C(=O)O)C1CCCCC1; NMeI = CC[C@H](C)[C@H](NC)C(=O)O; NMeD = CN[C@@H](CC(=O)O)C(=O)O; NMeL = CN[C@@H](CC(C)C)C(=O)O; NMeNva = CCC[C@H](NC)C(=O)O; NMeV = CN[C@H](C(=O)O)C(C)C; d(β3hA) = C[C@@H](N)CC(=O)O; Azetidin(1-yl) = C1CN(*)C1; NMeS = CN[C@@H](CO)C(=O)O; Pip = O=C(O)[C@@H]1CCCCN1; Morpholide = C1CN(*)CCO1; NMeA = CN[C@@H](C)C(=O)O; NMeAib = CNC(C)(C)C(=O)O; Piperidide = C1CCN(*)CC1; Ac5c = NC1(C(=O)O)CCCC1; Aze = O=C(O)[C@@H]1CCN1; Cyclobutyl = C1CC(*)C1; Meb = Cc1ccc(C*)cc1; Sar = CNCC(=O)O; Propyl = CCC*
# System: Human pancreatic cancer cell line AsPC-1
# Test: Measurement of AsPC-1 cell growth inhibition (AsPC-1 CGI)
# Type: cell-based
# Details: 96 h
# How it was run: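 AsPC-1 cells in 15% FBS RPMI-1640 were exposed to test compound for 96 hours at 37° C, with CellTiter-Glo as endpoint.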
row,Structure (SMILES),IC50
1,CCCCC[C@H]1C(=O)N[C@@H]([C@@H](C)CC)C(=O)N[C@@H](C)C(=O)N2CC[C@H]2C(=O)N(C)[C@@H](CC2CCCCC2)C(=O)N(C)CC(=O)N[C@@H](CCc2ccc(C(F)(F)F)c(Cl)c2)C(=O)N2CCC[C@H]2C(=O)NC2(CCCC2)C(=O)N(C)[C@@H](C2CCCC2)C(=O)N(C)[C@H](C(=O)N2CCC2)CC(=O)N1C [Compound 155] ([NMeAhp(2)]IA[Aze][NMeCha][Sar][hPhe(3-Cl-4-CF3)]P[Ac5c][NMeGly(cPent)][NMeD]-{Azetidin(1-yl)}; lactam N-11),20 to 50 nM
2,"CC[C@H](C)[C@@H]1NC(=O)[C@H](CC(C)C)N(C)C(=O)C[C@@H](C)N(C)C(=O)[C@H](C2CCCCC2)N(C)C(=O)C2(CCCC2)NC(=O)[C@@H]2CCCN2C(=O)[C@H](CCc2cc(F)c(C(F)(F)F)c(F)c2)NC(=O)CN(C)C(=O)[C@H](Cc2ccc(C(F)(F)F)cc2)N(C)C(=O)[C@@H]2CCN2C(=O)[C@H](C)N(C)C1=O [Compound 39] (cyclo([Ac5c][NMeChg][NMedβ3hAla][NMeL]I[NMeA][Aze][NMePhe(4-CF3)][Sar][hPhe(3,5-F2-4-CF3)]P))",100 to 500 nM
3,CC[C@H](C)[C@@H]1NC(=O)[C@H](C(C)C)N(C)C(=O)C[C@@H](C(=O)N2CCCCC2)N(C)C(=O)[C@H](C(C)C)N(C)C(=O)C2(CCCC2)NC(=O)[C@@H]2CCCN2C(=O)[C@H](CCc2ccc(C(F)(F)F)c(Cl)c2)NC(=O)CN(C)C(=O)[C@H](CC2CCCCC2)N(C)C(=O)[C@@H]2CCN2C(=O)[C@H](C)N(C)C1=O [Compound 1767] ([NMeV]I[NMeA][Aze][NMeCha][Sar][hPhe(3-Cl-4-CF3)]P[Ac5c][NMeV][NMeD]-Piperidide; lactam N-11),100 to 500 nM
4,CCCOC[C@H]1C(=O)N(C)CC(=O)N[C@@H](CCc2ccc(C(F)(F)F)c(Cl)c2)C(=O)N2CCC[C@H]2C(=O)NC2(CCCC2)C(=O)N(C)[C@@H](C2CCCC2)C(=O)N(C)[C@H](C(=O)N2C3CCC2COC3)CC(=O)N(CC)[C@@H](CC(C)C)C(=O)N[C@@H]([C@@H](C)CC)C(=O)N[C@@H](C)C(=O)N2CC[C@H]2C(=O)N1C [Compound 1167] ([NEtLeu]IA[Aze][NMeS](Propyl)[Sar][hPhe(3-Cl-4-CF3)]P[Ac5c][NMeGly(cPent)][NMeD]-{3Oxa8azabicyclo(3.2.1)octane}; lactam N-11),100 to 500 nM
5,CC[C@H](C)[C@@H]1NC(=O)[C@H](CC(C)C)N(C)C(=O)C[C@@H](C(=O)N(C)C)N(C)C(=O)[C@H](C2CCCC2)N(C)C(=O)C2(CCCC2)NC(=O)[C@H](CC(=O)N2CCC2)N(C)C(=O)[C@H](CCc2ccc(C(F)(F)F)c(Cl)c2)NC(=O)CN(C)C(=O)[C@H](CC2CCCCC2)N(C)C(=O)[C@@H]2CCN2C(=O)[C@H](C)N(C)C1=O [Compound 2102] ([NMeL]I[NMeA][Aze][NMeCha][Sar][hPhe(3-Cl-4-CF3)][NMeD](Azetidin(1-yl))[Ac5c][NMeGly(cPent)][NMeD]-NMe2; lactam N-11),100 to 500 nM
6,CC[C@H](C)[C@@H]1NC(=O)[C@H](COC2CCC2)N(C)C(=O)C[C@@H](C(=O)N2CCCCC2)N(C)C(=O)[C@H](C(C)C)N(C)C(=O)C2(CCCC2)NC(=O)[C@@H]2CCCN2C(=O)[C@H](CCc2ccc(C(F)(F)F)c(Cl)c2)NC(=O)CN(C)C(=O)[C@H](CC2CCCCC2)N(C)C(=O)[C@@H]2CCN2C(=O)[C@H](C)N(C)C1=O [Compound 755] ([NMeS](Cyclobutyl)I[NMeA][Aze][NMeCha][Sar][hPhe(3-Cl-4-CF3)]P[Ac5c][NMeV][NMeD]-Piperidide; lactam N-11),100 to 500 nM
7,CC[C@H](C)[C@@H]1NC(=O)[C@H](CC(C)C)N(C)C(=O)C[C@@H](C)N(C)C(=O)[C@H](C2CCCC2)N(C)C(=O)C2(CCCC2)NC(=O)[C@@H]2CCCN2C(=O)[C@H](CCc2ccc(C(F)(F)F)c(Cl)c2)NC(=O)CN(C)C(=O)[C@H](CC2CCCCC2)N(C)C(=O)[C@@H]2CCN2C(=O)[C@H](C)N(C)C1=O [Compound 1717] (cyclo([Ac5c][NMeGly(cPent)][NMedβ3hAla][NMeL]I[NMeA][Aze][NMeCha][Sar][hPhe(3-Cl-4-CF3)]P)),50 to 100 nM
8,CC[C@H](C)[C@@H]1NC(=O)[C@H](CCCCC(F)F)N(C)C(=O)C[C@@H](C(=O)N2CCCCC2)N(C)C(=O)[C@H](C(C)C)N(C)C(=O)C2(CCCC2)NC(=O)[C@@H]2CCCN2C(=O)[C@H](CCc2ccc(C(F)(F)F)c(Cl)c2)NC(=O)CN(C)C(=O)[C@H](CC2CCCCC2)N(C)C(=O)[C@@H]2CCN2C(=O)[C@H](C)N(C)C1=O [Compound 94] ([NMeNle(6-CHF2)]I[NMeA][Aze][NMeCha][Sar][hPhe(3-Cl-4-CF3)]P[Ac5c][NMeV][NMeD]-Piperidide; lactam N-11),100 to 500 nM
9,CCC[C@H]1C(=O)N(C)[C@H](C(=O)N2CCCCC2)CC(=O)N(C)[C@@H](CC(C)C)C(=O)N[C@@H]([C@@H](C)CC)C(=O)N(C)[C@@H](C)C(=O)N2CC[C@H]2C(=O)N(C)[C@@H](CC2CCCCC2)C(=O)N(C)CC(=O)N[C@@H](CCc2ccc(C(F)(F)F)c(Cl)c2)C(=O)N2CCC[C@H]2C(=O)NC2(CCCC2)C(=O)N1C [Compound 995] ([NMeL]I[NMeA][Aze][NMeCha][Sar][hPhe(3-Cl-4-CF3)]P[Ac5c][NMeNva][NMeD]-Piperidide; lactam N-11),100 to 500 nM
10,CCCCC[C@H]1C(=O)N[C@@H]([C@@H](C)CC)C(=O)N[C@@H](C)C(=O)N2CC[C@H]2C(=O)N(C)[C@@H](COCCC)C(=O)N(C)CC(=O)N[C@@H](CCc2ccc(C(F)(F)F)c(Cl)c2)C(=O)N2CCC[C@H]2C(=O)NC2(CCCC2)C(=O)N(C)[C@@H](C2CCCC2)C(=O)N(C)[C@H](C(=O)N2C3CCC2COC3)CC(=O)N1C [Compound 163] ([NMeAhp(2)]IA[Aze][NMeS](Propyl)[Sar][hPhe(3-Cl-4-CF3)]P[Ac5c][NMeGly(cPent)][NMeD]-{3Oxa8azabicyclo(3.2.1)octane}; lactam N-11),50 to 100 nM
11,"CC[C@H](C)[C@@H]1NC(=O)[C@H](CC(C)C)N(C)C(=O)C[C@@H](C(=O)N2CCCCC2)N(C)C(=O)[C@H](CC(C)C)N(C)C(=O)C2(CCCC2)NC(=O)[C@@H]2C[C@H](OCc3ccc(C)cc3)CN2C(=O)[C@H](CCc2ccc(C(F)(F)F)c(F)c2)NC(=O)CN(C)C(=O)[C@H](CC2CCCCC2)N(C)C(=O)CN(C)C(=O)CN(C)C1=O [Compound 2140] ([NMeL]I[Sar][Sar][NMeCha][Sar][hPhe(3-F,4-CF3)][cisHyp](Meb)[Ac5c][NMeL][NMeD]-Piperidide; lactam N-11)",> 500 nM
12,CC[C@H](C)[C@@H]1NC(=O)[C@H](CC(C)C)N(C)C(=O)C[C@@H](C(=O)N2CCCCC2)N(C)C(=O)[C@H](C2CCCC2)N(C)C(=O)C2(CCCC2)NC(=O)[C@@H]2CCCN2C(=O)[C@H](CCc2ccc3ncccc3c2)NC(=O)CN(C)C(=O)[C@H](CC2CCCCC2)N(C)C(=O)[C@@H]2CCN2C(=O)[C@H](C)N(C)C1=O [Compound 2070] ([NMeL]I[NMeA][Aze][NMeCha][Sar][X44]P[Ac5c][NMeGly(cPent)][NMeD]-Piperidide; lactam N-11),> 500 nM
13,CC[C@H](C)[C@@H]1NC(=O)[C@H](C)N(C)C(=O)C[C@@H](C)N(C)C(=O)[C@H](C(C)C)N(C)C(=O)C(C)(C)N(C)C(=O)[C@@H]2CCCN2C(=O)[C@H](CCc2ccc(C(F)(F)F)c(Cl)c2)NC(=O)CN(C)C(=O)[C@H](CC2CCCCC2)N(C)C(=O)[C@@H]2CCN2C(=O)[C@H](C)N(C)C1=O [Compound 341] (cyclo([Aze][NMeCha][Sar][hPhe(3-Cl-4-CF3)]P[NMeAib][NMeV][NMedβ3hAla][NMeA]I[NMeA])),100 to 500 nM
14,"CC[C@H](C)[C@@H]1NC(=O)[C@H](CC(C)C)N(C)C(=O)C[C@@H](C)N(C)C(=O)[C@H]([C@@H](C)CC)N(C)C(=O)C2(CCCC2)NC(=O)[C@@H]2CCCN2C(=O)[C@H](CCc2ccc(C(F)(F)F)c(F)c2)NC(=O)CN(C)C(=O)[C@H](C2CCCC2)N(C)C(=O)[C@@H]2CCN2C(=O)[C@H](C)N(C)C1=O [Compound 909] (cyclo([Ac5c][NMeI][NMedβ3hAla][NMeL]I[NMeA][Aze][NMeGly(cPent)][Sar][hPhe(3-F,4-CF3)]P))",50 to 100 nM
15,CC[C@H](C)[C@@H]1NC(=O)[C@H](CC(C)C)N(CC)C(=O)C[C@@H](C(=O)N2CCOCC2)N(C)C(=O)[C@H](C2CCCC2)N(C)C(=O)C2(CCCC2)NC(=O)[C@@H]2CCCN2C(=O)[C@H](CCc2ccc(C(F)(F)F)c(Cl)c2)NC(=O)CN(C)C(=O)[C@H](CC2CCCCC2)N(C)C(=O)[C@@H]2CCN2C(=O)[C@H](C)NC1=O [Compound 1266] ([NEtLeu]IA[Aze][NMeCha][Sar][hPhe(3-Cl-4-CF3)]P[Ac5c][NMeGly(cPent)][NMeD]-Morpholide; lactam N-11),100 to 500 nM
16,"CC[C@H](C)[C@@H]1NC(=O)[C@H](CC(C)C)N(C)C(=O)C[C@@H](C)N(C)C(=O)[C@H](C2CCCC2)N(C)C(=O)C2(CCCC2)NC(=O)[C@@H]2CCCN2C(=O)[C@H](CCc2ccc(C(F)(F)F)c(F)c2)NC(=O)CN(C)C(=O)[C@H](C2CCCC2)N(C)C(=O)[C@@H]2CCN2C(=O)[C@H](C)N(C)C1=O [Compound 386] (cyclo([Ac5c][NMeGly(cPent)][NMedβ3hAla][NMeL]I[NMeA][Aze][NMeGly(cPent)][Sar][hPhe(3-F,4-CF3)]P))",20 to 50 nM
17,CC[C@H](C)[C@@H]1NC(=O)[C@H](CC(C)C)N(C)C(=O)C[C@@H](C(=O)N2CCCCC2)N(C)C(=O)[C@H](C(C)C)N(C)C(=O)C2(CCCC2)NC(=O)[C@@H]2CCCN2C(=O)[C@H](CCc2ccc(C(F)(F)F)c(Cl)c2)NC(=O)CN(C)C(=O)[C@H](CC2CCCCC2)N(C)C(=O)[C@@H]2CCN2C(=O)[C@H](C)N(C)C1=O [Compound 476] ([NMeL]I[NMeA][Aze][NMeCha][Sar][hPhe(3-Cl-4-CF3)]P[Ac5c][NMeV][NMeD]-Piperidide; lactam N-11),100 to 500 nM
18,CC[C@H](C)[C@@H]1NC(=O)[C@H](CC(C)C)N(C)C(=O)C[C@@H](C)NC(=O)[C@H](C(C)C)N(C)C(=O)C2(CCCC2)NC(=O)[C@@H]2CCCN2C(=O)[C@H](CCc2ccc(C(F)(F)F)c(Cl)c2)NC(=O)CN(C)C(=O)[C@H](CC2CCCCC2)N(C)C(=O)[C@@H]2CCN2C(=O)[C@@H]2CCCCN2C1=O [Compound 416] (cyclo([Ac5c][NMeV][d(β3hA)][NMeL]I[Pip][Aze][NMeCha][Sar][hPhe(3-Cl-4-CF3)]P)),100 to 500 nM
